Data from the NIST ThermoML archive (doi:10.1021/je100484n).

Key:
[1] = refractive index (Na D-line) (dimensionless); xn = mol fraction of the nth substance listed; settings: 101 kPa, Liquid
[2] = 101 kPa, Liquid
[3] = refractive index (Na D-line) (dimensionless); settings: 101.33 kPa, Liquid
[4] = xn = mol fraction of the nth substance listed; settings: 101 kPa, Liquid, x2 = 0

CCCCCCC [heptane] + NC1CCCCC1
[1], x2 = 0
Settings | refractive index
303.15 K | 1.38259
308.15 K | 1.37995
313.15 K | 1.37731
318.15 K | 1.37463
323.15 K | 1.37197

CC(C)(C)O [2-methylpropan-2-ol]
Settings | mass density, 303.15 K [kg/m3] | mass density, 308.15 K [kg/m3] | mass density, 313.15 K [kg/m3] | mass density, 318.15 K [kg/m3] | mass density, 323.15 K [kg/m3] | refractive index, 303.15 K | refractive index, 308.15 K | refractive index, 313.15 K | refractive index, 318.15 K | refractive index, 323.15 K
[2] | 775.412 | 770.193 | 764.884 | 759.488 | 754.015 | – | – | – | – | –
[3] | – | – | – | – | – | 1.38222 | 1.37947 | 1.37667 | 1.37384 | 1.37097

NC1CCCCC1 [cyclohexylamine]
[3]
Settings | refractive index
303.15 K | 1.45375
308.15 K | 1.45114
313.15 K | 1.44856
318.15 K | 1.44599
323.15 K | 1.44336

CCCCCCC [heptane]
Settings | mass density, 303.15 K [kg/m3] | mass density, 308.15 K [kg/m3] | mass density, 313.15 K [kg/m3] | mass density, 318.15 K [kg/m3] | mass density, 323.15 K [kg/m3] | refractive index, 303.15 K | refractive index, 308.15 K | refractive index, 313.15 K | refractive index, 318.15 K | refractive index, 323.15 K
[2] | 675.229 | 670.941 | 666.621 | 662.273 | 657.896 | – | – | – | – | –
[3] | – | – | – | – | – | 1.38259 | 1.37995 | 1.37731 | 1.37463 | 1.37197

CCCCCCC [heptane] + CC(C)(C)O
[4]
Settings | mass density [kg/m3]
303.15 K | 675.229
308.15 K | 670.941
313.15 K | 666.621
318.15 K | 662.273
323.15 K | 657.896

[1], x2 = 0
Settings | refractive index
303.15 K | 1.38259
308.15 K | 1.37995
313.15 K | 1.37731
318.15 K | 1.37463
323.15 K | 1.37197

NC1CCCCC1 [cyclohexylamine] + CC(C)(C)O
refractive index, [1]
Settings | 303.15 K | 308.15 K | 313.15 K | 318.15 K | 323.15 K
x2 = 0 | 1.45375 | 1.45114 | 1.44856 | 1.44599 | 1.44336
x2 = 0.0508 | 1.45149 | 1.44888 | 1.44629 | 1.44368 | 1.44108
x2 = 0.1002 | 1.44914 | 1.44655 | 1.44395 | 1.44132 | 1.43876
x2 = 0.1502 | 1.44664 | 1.44404 | 1.44142 | 1.43884 | 1.43629
x2 = 0.2001 | 1.44406 | 1.44146 | 1.43888 | 1.4363 | 1.43371
x2 = 0.3005 | 1.43846 | 1.43586 | 1.43328 | 1.43068 | 1.42812
x2 = 0.3991 | 1.4325 | 1.42991 | 1.42732 | 1.42471 | 1.42218
x2 = 0.4996 | 1.42579 | 1.42321 | 1.42064 | 1.41804 | 1.41553
x2 = 0.5998 | 1.41855 | 1.41598 | 1.41339 | 1.41077 | 1.40818
x2 = 0.6997 | 1.41063 | 1.40805 | 1.40544 | 1.40284 | 1.40018
x2 = 0.7999 | 1.40191 | 1.39934 | 1.39676 | 1.39405 | 1.3914
x2 = 0.8712 | 1.39554 | 1.39281 | 1.39012 | 1.38734 | 1.38459
x2 = 0.8992 | 1.39261 | 1.38996 | 1.38723 | 1.3845 | 1.38176
x2 = 0.9504 | 1.38751 | 1.3848 | 1.38207 | 1.37923 | 1.37642
